One data set addresses T1, Protein O-GlcNAcase (Homo sapiens, UniProt O60502).
T1 sequence (O60502 whole entry): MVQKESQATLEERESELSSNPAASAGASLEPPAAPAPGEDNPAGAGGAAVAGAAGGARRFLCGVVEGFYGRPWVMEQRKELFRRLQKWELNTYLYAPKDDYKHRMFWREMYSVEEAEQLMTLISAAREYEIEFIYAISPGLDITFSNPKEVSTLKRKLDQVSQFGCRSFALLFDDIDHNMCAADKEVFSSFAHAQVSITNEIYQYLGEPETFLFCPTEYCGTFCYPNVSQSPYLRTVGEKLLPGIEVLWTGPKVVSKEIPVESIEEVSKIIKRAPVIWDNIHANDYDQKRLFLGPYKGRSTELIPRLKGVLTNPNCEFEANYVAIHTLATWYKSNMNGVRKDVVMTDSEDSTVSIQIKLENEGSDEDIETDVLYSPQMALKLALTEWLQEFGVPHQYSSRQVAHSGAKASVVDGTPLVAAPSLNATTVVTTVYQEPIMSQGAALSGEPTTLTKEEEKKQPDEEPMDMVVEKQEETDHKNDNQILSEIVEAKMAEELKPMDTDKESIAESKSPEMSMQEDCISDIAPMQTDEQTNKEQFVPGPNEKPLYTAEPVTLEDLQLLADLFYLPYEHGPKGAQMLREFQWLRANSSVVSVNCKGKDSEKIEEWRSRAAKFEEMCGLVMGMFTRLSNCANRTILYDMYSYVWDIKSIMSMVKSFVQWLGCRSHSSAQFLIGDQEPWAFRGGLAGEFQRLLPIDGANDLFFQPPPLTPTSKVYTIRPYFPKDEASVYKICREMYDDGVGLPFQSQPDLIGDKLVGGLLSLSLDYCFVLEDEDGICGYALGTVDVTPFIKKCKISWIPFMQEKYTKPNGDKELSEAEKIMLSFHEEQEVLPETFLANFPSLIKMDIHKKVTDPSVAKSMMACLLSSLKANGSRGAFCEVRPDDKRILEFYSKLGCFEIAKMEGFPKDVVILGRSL
In words: Inhibition of human recombinant OGA pretreated for 20 mins followed by 4-Methylumbelliferyl N-acetyl-(3-D-glucosaminide substrate addition by fluorometer.

Data set [1] addresses T2, Hexosaminidase D (Homo sapiens) (UniProt Q8WVB3).
T2 sequence (whole entry): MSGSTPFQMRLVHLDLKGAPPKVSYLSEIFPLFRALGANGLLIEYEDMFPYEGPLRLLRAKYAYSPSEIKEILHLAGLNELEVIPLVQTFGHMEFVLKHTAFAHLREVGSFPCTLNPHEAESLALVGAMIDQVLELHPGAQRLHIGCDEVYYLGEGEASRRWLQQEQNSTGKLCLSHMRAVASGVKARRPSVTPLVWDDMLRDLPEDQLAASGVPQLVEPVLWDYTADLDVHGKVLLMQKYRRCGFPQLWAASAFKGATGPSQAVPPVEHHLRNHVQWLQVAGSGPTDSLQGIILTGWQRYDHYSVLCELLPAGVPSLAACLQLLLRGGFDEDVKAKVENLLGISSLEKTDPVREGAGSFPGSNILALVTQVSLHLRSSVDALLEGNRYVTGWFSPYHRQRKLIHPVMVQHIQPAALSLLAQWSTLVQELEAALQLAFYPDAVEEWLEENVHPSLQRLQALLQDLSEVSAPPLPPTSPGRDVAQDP
In words: Inhibition of human recombinant beta-hexosaminidase at 10 uM pretreated with compound followed by 4-nitrophenyl Nacetyl-beta-D-glucosaminide substrate addition by fluorometer.

The nature of data set [2]: Cytotoxicity against mouse HT-22 cells assessed as cell viability at 10 uM after 18 hrs by MTT assay. It counts as toxicity, cell-based. The note with it: read-out: Activity. (Formazan colour is commonly taken as a measure of viable cells.)
Data set [3] can be described thus: AUClast in ICR mouse plasma at 50 mg/kg, ip after 24 hrs by LC-MS/MS analysis. Details: dose 50 mg/kg, time 24 hrs, route ip. It counts as ADME, organism-based.
Data set [4] relates to Brain. In words: Anti-alzheimer activity in mouse model assessed as decrease in amyloid beta level in brain at 50 mg/kg, ip for 3 days by ELISA relative to control. It counts as functional. The settings on record: 72 h, time 3 day.
Data set [5] in a line: AUClast in ICR mouse brain at 50 mg/kg, ip after 24 hrs by LC-MS/MS analysis. It counts as ADME, organism-based. The arrangement: dose 50 mg/kg, time 24 hrs, route ip.
The test system of data set [6] is Mus musculus. Kind of data set: Neuroprotective activity against amyloid beta (1 to 42)-induced cognitive impairement in ICR mouse assessed as […] spontaneous alteration at 50 mg/kg, ip for 3 days by Y-maze test. Type of data set: functional, organism-based. The note with it: time 3.0 day.
For data set [7], the species on record is Mus musculus. The note with it: ICR, dose 50.0 mg/kg, route ip, time 3.0 day.
Data set [8] is described as follows: Ratio of drug level in ICR mouse brain to plasma at 50 mg/kg, ip after 24 hrs by LC-MS/MS analysis. The note with it: brain and plasma, read-out: BPR. It counts as ADME, organism-based.
Data set [9] is described as follows: AUClast in ICR mouse brain at 20 mg/kg, ip after 24 hrs by LC-MS/MS analysis. Type of data set: ADME, organism-based. The arrangement: time 24 hrs, dose 20 mg/kg, route ip.
Data set [10] is described as follows: AUClast in ICR mouse plasma at 20 mg/kg, ip after 24 hrs by LC-MS/MS analysis. Type of data set: ADME, organism-based. The arrangement: dose 20 mg/kg, time 24 hrs, route ip.
Data set [11] deals with Mus musculus. In words: Neuroprotective activity against amyloid beta (1 to 42)-induced cognitive impairement in ICR mouse assessed as spontaneous alteration at 20 mg/kg, ip for 3 days by Y-maze test. The settings on record: time 3.0 day. Type of data set: functional, organism-based.
For data set [12], the system named is Brain. In words: Anti-alzheimer activity in mouse model assessed as decrease in amyloid beta level in brain at 20 mg/kg, ip for 3 days by ELISA relative to control. Type of data set: functional. The note with it: 72 h, time 3 day.
A short description of data set [13]: Half life in ICR mouse plasma at 20 mg/kg, ip after 24 hrs by LC-MS/MS analysis. It counts as ADME, organism-based.
Data set [14] concerns Mus musculus. In words: In vivo inhibition of OGA in amyloid-beta-induced ICR mouse assessed as decrease in 4-MUF level at 2 to 20 mg/kg, ip for 3 days by fluorescence analysis. Type of data set: functional, organism-based. The settings on record: dose 2-20 mg/kg, time 3.0 day.
Data set [15] in a line: Cmax in ICR mouse plasma at 20 mg/kg, ip after 24 hrs by LC-MS/MS analysis. It counts as ADME, organism-based. Details: dose 20 mg/kg, time 24 hrs, route ip.
Data set [16] in a line: AUCt in ICR mouse plasma at 20 mg/kg, ip after 24 hrs by LC-MS/MS analysis. Details: time 24 hrs, dose 20 mg/kg, route ip. Type of data set: ADME, organism-based.
Data set [17] can be described thus: Ratio of drug level in ICR mouse brain to plasma at 20 mg/kg, ip after 24 hrs by LC-MS/MS analysis. It counts as ADME, organism-based. The settings on record: brain and plasma, read-out: BPR.
A short description of data set [18]: Tmax in ICR mouse plasma at 20 mg/kg, ip after 24 hrs by LC-MS/MS analysis. It counts as ADME, organism-based.
The subject of data set [19] is Brain. Kind of data set: Anti-alzheimer activity in mouse model assessed as decrease in amyloid beta level in brain at 2 mg/kg, ip for 3 days by ELISA relative to control. The note with it: 72 h, time 3 day. It counts as functional. (In an ELISA, binding on a coated surface is turned into a signal by an enzyme label.)
Data set [20] in a line: AUCinfinity in ICR mouse plasma at 20 mg/kg, ip after 24 hrs by LC-MS/MS analysis. Type of data set: ADME, organism-based. The arrangement: time 24 hrs, dose 20 mg/kg, route ip.

Active and inactive are the calls of the source. The calls are words filed in the database; no cut-off is given here.

16 compounds from ChEMBL document CHEMBL5113406, “Structure-based discovery and development of novel O-GlcNAcase inhibitors for the treatment of Alzheimer's disease” (Eur J Med Chem, 2022) can be followed below.

`CC(=O)Nc1ncc(CN2CCC(C(=O)Nc3ccc(C)cc3)CC2)s1`: the IC50 at Protein O-GlcNAcase was determined as 300 nM.

In the case of `CC(=O)N[C@H]1/C(=N\OC(=O)Nc2ccccc2)O[C@H](CO)[C@@H](O)[C@@H]1O`, in [1], the inhibition came to 7.6%. In [2], the viability at 18 h, 10 µM was found to be 102%.

Turning to `CC(=O)Nc1ncc(CN2CCN(CC(=O)Nc3ccc(Cc4ccccc4)cc3)CC2)s1`, the inhibition in data set [1] is 101%. The viability at 18 h, 10 µM in data set [2] came to 140%.

Turning to `CC(=O)Nc1ncc(CN2CCN(CC(=O)Nc3ccc(Cc4ccccc4)cc3)CC2C)s1` (centres undefined), the inhibition in [1] is 106%. Further, the viability at 18 h, 10 µM in [2] worked out at 136%.

`CC(=O)Nc1ncc(CN2CCCC(C(=O)Nc3ccc(F)cc3)C2)s1` (centres undefined): the inhibition in data set [1] was 92.5%. Besides, in data set [2], the viability at 18 h, 10 µM was 120%.

As for `CC(=O)Nc1ncc(CN2CCN(CC(=O)Nc3ccccn3)CC2)s1`, the IC50 at Protein O-GlcNAcase stood at 1400 nM.

Take `CCNC1=N[C@@H]2[C@@H](O)[C@H](O)[C@@H](CO)O[C@@H]2S1`: the AUC(0-t) at 24 h was 10000 ng·h/mL in [3] and 590 ng·h/mL in [5]. In data set [1], the inhibition turned out to be 91.6%. In addition, in the data set with Brain [4], the inhibition in vivo at 50 mg/kg amounted to 62.8%. Besides, the outcome with Mus musculus [6] was Active. Further, the viability at 18 h, 10 µM in data set [2] worked out at 95.9%. Further, in the data set listed under Mus musculus [7], the inhibition entry was “Active”. The Kp at 24 h in data set [8] turned out to be 0.07.

For `CC(=O)Nc1ncc(CN2CCC(=CC(=O)NC3CCCCC3)CC2)s1`, the concentration for half-maximal inhibition (IC50) on Protein O-GlcNAcase is 280 nM.

Turning to `CC(=O)Nc1ncc(CN2CCCC(C(=O)Nc3ccccc3)C2)s1` (centres undefined), the IC50 on Protein O-GlcNAcase stood at 450 nM.

In the case of `COc1ccc(CNC(=O)C=C2CCN(Cc3cnc(NC(C)=O)s3)CC2)cc1`, in data set [1], the inhibition is 89.6%. The viability at 18 h, 10 µM in data set [2] came to 109%.

In the case of `CC(=O)Nc1ncc(CN2CCC(C(=O)Nc3ccc(F)cc3)CC2)s1`, the IC50 on Protein O-GlcNAcase was 160 nM.

For the compound `CC(=O)Nc1ncc(CN2CCN(CC(=O)Nc3ccc(N4CCN(C(C)=O)CC4)cc3)CC2C)s1` (centres undefined), the inhibition in data set [1] was found to be 73.5%. Also, the viability at 18 h, 10 µM in data set [2] came to 94.4%.

Regarding `CC(=O)Nc1ncc(CN2CCN(CC(=O)Nc3ccccc3)CC2C)s1` (centres undefined), the inhibition in data set [1] was 103%. Besides, the viability at 18 h, 10 µM in data set [2] came to 98.6%.

With `CC(=O)Nc1ncc(CN2CCCC(C(=O)NC3CCCCC3)C2)s1` (centres undefined), the IC50 on Protein O-GlcNAcase amounted to 230 nM.

As to `CC(=O)Nc1ncc(CN2CCN(CC(=O)NC3CCCCC3)CC2C)s1` (centres undefined), the inhibition in data set [1] came out at 101%. Besides, the viability at 18 h, 10 µM in data set [2] was 123%.

Turning to `CC(=O)Nc1ncc(CN2CCN(CC(=O)Nc3ccc(Cl)cc3)CC2C)s1` (centres undefined), the exposure AUC(0-t) at 24 h in data set [9] worked out at 590 ng·h/mL; in [10] it was 2960 ng·h/mL; in data set [16], 4980 ng·h/mL. Moreover, in the data set with Mus musculus [11], the result was Active. In addition, in the data set with Brain [12], the inhibition in vivo at 20 mg/kg amounted to 71.8%. In addition, the inhibition in [1] came out at 92.4%. The same compound had a half-life in [13] of 91.8 min. Besides, the inhibition result in the data set on Mus musculus [14] is “Active”. The viability at 18 h, 10 µM in data set [2] stood at 111%. The same compound yielded a Cmax in [15] of 3200 ng/mL. For the same compound, the Kp at 24 h in data set [17] was 0.2. In addition, the Tmax in data set [18] is 21.6 min. In the data set on Brain [19], the inhibition in vivo at 2 mg/kg turned out to be 42%. Moreover, the AUC(0-inf) in [20] came to 5210 ng·h/mL.

For orientation: IC50 means the concentration that gives 50% inhibition. For orientation: inhibition means the relative decrease from the control value, in per cent. Usually AUC(0-t) stands for the area under the concentration-time curve up to a stated or last time point. Low values mean low exposure, high ones high exposure. A word on the inhibition in vivo: it is the drop in the measured response relative to a control, in per cent. A word on the half-life: it is the time in which the quantity being followed falls by half. Low values mean fast loss, high ones slow loss. By Cmax is commonly meant the maximum level reached in the sampled fluid or tissue. A word on the Tmax: it is the time at which the peak concentration occurs. By AUC(0-inf) is commonly meant total exposure, with the tail of the curve extrapolated.
